Data reported in patent US6998387B1, “Human appetite control by glucagon-like peptide receptor binding compounds” (Amylin Pharmaceuticals, Inc., priority 1998, dated 2006).
“Also recorded” adds a separate entry of the source. Like-named read-outs stand apart in the source and are kept apart here.

Key:
rats = conditions: cited from earlier work
healthy male subjects = assay: Effect of graded intravenous doses of synthetic human GLP-1 on food intake (Example 1); conditions: for Calorie intake / Fluid intake / Food quantity / Meal duration: 16 healthy male subjects, mean, SEM
Description: A randomized, double-blind design was carried out with 16 healthy men aged 23.6±0.5 years. The weight of all subjects was within normal range considering their age, sex, and height. Each subject gave written informed consent for the study.
Four treatments (0, 0.375, 0.75 and 1.5 pmol/kg), separated by at least 7 days, were administered to the 16 subjects. […] An identical standard meal was presented to the subjects on each occasion. The meal consisted of orange juice as an appetizer (480 kcal per 1); ham sandwiches (60 g bread, 10 g butter, 25 g ham 266 kcal per sandwich) and more orange juice and chocolate pudding (172 kcal per 100 g): coffee with cream and sugar (coffee could be sweetened if desired; therefore both cream and sugar were optional @ 12 g cream=20 kcal, 4.5 sugar=18 kcal). No other food or liquid was allowed during the study. At the end of the study, the amount of food eaten and the amount of fluid ingested was measured by absolute weight from which total caloric intake (food and fluid intake) was calculated.
Each subject was free to eat and drink as much as they wished, but the order of food intake had to follow the above schedule. To reduce participant's awareness of the amount of food being provided, food was served in excess.
On the first day of each treatment, each subject ate breakfast, if this was their normal custom; however, no snacks were allowed after 8:00 a.m. […] Infusions were delivered by ambulatory infusion pumps through a teflon catheter inserted into a forearm vein. Participants were able to sit, eat, stand and walk comfortably while receiving infusions. At 60 minutes after the start of the respective infusion, the test meal was presented and each participant was invited to eat and drink as much as they liked.
Beginning at 12:00 noon, the subjects scored their subjective feelings of hunger and fullness at 15 minute intervals throughout the treatments using a visual analogue scale of 0–10 and indicated the scores on a questionnaire. The scales and scores were designed as previously described (Welch I. M. et al. Gut 29:306–311 (1988); Welch I. M. et al. Gastroenterology 89:1293–1297 (1985); Drewe, J. et al. Gastroenterology 102:1654–1659 (1982)). For example, a score of 0 for hunger indicated the subject was not hungry at all, 2 indicated slightly hungry, 5 indicated moderately hungry, 8 indicated very hungry, and 10 indicated absolutely ravenous.
The quantity of food eaten and volume of fluid drunk was measured. The time for each subject to complete their meal was also measured. From these observations, the average rate of food and fluid intake, as well as the calorie intake, could be calculated. In the pre-meal period and after eating, blood was drawn at regular intervals into ethylenediaminetetraacetic acid (EDTA) tubes containing aprotinine (1000 KIU/ml blood) for glucose and hormone determinations.
The peptide was dissolved in 0.9% saline containing 0.5% human serum albumin, and prepared under aseptic conditions. Aliquots of 50 μg/5 ml were stored at −20° C. […] Treatments were delivered in a double-blind fashion.
The amount of food eaten and the amount of fluid drunk, the corresponding energy intake, and the duration of meal consumption were compared between the four by one-way analysis of variance (ANOVA) using the general linear model (GLM) procedure of the SAS software package (SAS Release 6.03. Cary, N C: SAS Institute, 1988). In the event of significant differences, ANOVA was followed by the Newman-Keuls multi-comparison test for pairwise comparisons (Sachs, L. Angewandte Statistik. Berlin, Springer, (1984)). […] Scores for hunger and fullness were compared at the different time points before and after meals between the different treatments using multiple paired t-tests with Bonferroni correction (Sachs, L. Angewandte Statistik. Berlin, Springer, (1984)).

[1] = Plasma glucose and hormone concentrations during graded GLP-1 infusion (Example 1); assay type: in vivo, human; conditions: healthy male subjects
Description: Glucose concentrations were measured by the hexokinase method. Plasma hormone concentrations of insulin, cholecystokinin, GLP-1 and leptin were measured as depicted in FIG. 1. All hormone concentrations were determined by specific radioimmunoassay systems. For insulin and leptin concentrations commercially available test kits were used. […] GLP-1 was measured as previously described (Schirra, J. et al. Proc. Assoc. Am. Phys. 109(1):84–971 (1997)). The detection limit of the GLP-1 assay was 2 fmol/tube. […] Intra-assay and inter-assay coefficients of variation were 3.4% and 10.4%, respectively.

[2] = system: patients with diabetes mellitus type 2; assay: Effect of GLP-1 infusion on eating behaviour in diabetes mellitus type 2 (Example 2)
Description: Twelve male patients were recruited for the study who had diabetes mellitus type 2 for at least one year. Patients were admitted to a Research Unit after given written informed consent and after the experimental protocol had been explained to them. The mean age of the patients was 55±2 years; their mean HbA1C was 8.1±4 and their mean BMi was 29.4±1.2. Seven patients were on oral antidiabetics. The participants were tested on two different days in a placebo-controlled, randomized, double-blind, crossover study. The two test days were separated by at least one week and by no more than three weeks.
On each test day, patients arrived in the Research Unit in the morning, having fasted overnight. A standardized, fixed energy breakfast was then served and it had to be completed before 8:30 a.m. After breakfast, patients were able to read and listen to music. At 11:00 a.m., two venflon catheters were inserted into the anticubital veins of each arm, one for infusion, the other one for blood drawing. […] Infusions were delivered by ambulatory infusion pumps. 60 min after the start of the respective infusion, a test meal was presented and the participants were invited to eat and drink as much as they liked.
Beginning with the infusions, participants scored their subjective feelings of hunger and fullness in 15 min intervals throughout the experiments using visual analogue scales (VAS) of 0–10 with text expressing the most positive and most negative rating anchored at each end. VAS were used to assess hunger, fullness, and prospective food consumption using scales and scores which have previously been designed.
Each subject was free to eat and drink as much as they wished until “comfortably satisfied” of a standard meal which consisted of a) orange juice as an appetizer (480 kcal/l); b) ham sandwiches (60 g, 10 g butter, 25 g ham: 266 kcal/sandwich) with more orange juice or with water; c) strawberry mousse (100 kcal/100 g); d) coffee with cream (coffee could be sweetened with aspartam if desired; both cream and aspartan were optional; 12 g cream=20 kcal). No additional food or fluid was allowed during the study. In addition, the order of food intake had to follow the above schedule. To reduce participants' awareness of the amount of food being provided, food was served in excess. The quantity of food eaten and the quantity of fluid drunk were measured. From these observations, the total energy intake could be calculated. In the pre-meal period and after eating, blood samples were taken in regular intervals for glucose and hormone determinations. Adverse events were assessed by the attending physician through close observation of each patient; in addition, each participant was questioned after each experiment and after they had completed the two tests whether they had experienced any adverse events.
The peptide was dissolved in 0.9% saline solution containing 0.5% human serum albumin and prepared under aseptic conditions by the University of Basel Hospital Pharmacy. Aliquots of 50 μg/5 ml were stored at −20° C. […] The solutions were prepared by a pharmacist who was not involved in the study. The physician in charge of the experiment was therefore not aware of the respective treatment, thereby making it possible to conduct treatments in a double-blind fashion.
The amount of food eaten and the amount of fluid drunk as well as the corresponding energy intake were compared between the two treatments by Wilcoxon Signed Ranks Test using an SAS software package. […] Scores for hunger and fullness were compared by calculating the S score from baseline (0 min) to 60 min of infusion using the Wilcoxon Signed Ranks Test. Differences were considered significant if p was <0.05.

[3] = Plasma glucose and hormone concentrations during GLP-1 infusion (Example 2); assay type: in vivo, human; conditions: diabetes mellitus type 2
Description: Blood was drawn through the indwelling anticubital cannula into syringes on ice. These contained EDTA (6 μmol/l) and aprotinine (1000 KIU/l). After centrifugation, plasma hormone analyses were kept frozen at −20° C. Plasma glucose was analyzed by the glucose oxidase method. Insulin and glucagon concentrations in plasma were analyzed by commercially available radioimmunoassay kits (Biermann, Bad Nauheim, Germany). Immunoreactive GLP-1 was measured using the specific polyclonal antibody GA 1178 (Affinity Research, Nottingham, UK). Immunoreactivities were extracted from plasma samples on C-18 cartridges using acetonitrile for elution of samples. The detection limit of the assay was 0.25 pmol/l. Intra-and interassay coefficients of variation were 3.8% and 10.9%, respectively.
Differences were considered significant if p was <0.05.

obese humans = conditions: infusion of GLP-1 over 210 minutes; cited from earlier work
[4] = GLP-1 0.375 pmol/kg/min i.v. infusion
[5] = GLP-1 0.75 pmol/kg/min i.v. infusion
[6] = GLP-1 1.5 pmol/kg/min i.v. infusion
[7] = pre-meal period, significant only for highest dose of GLP-1, healthy male subjects
[8] = GLP-1 1.5 pmol/kg per min i.v. vs saline, diabetes mellitus type 2
[9] = GLP-1 1.5 pmol/kg per min i.v., 12 patients with diabetes mellitus type 2, mean ± SEM
[10] = pre-meal period, baseline vs 60 min of infusion, diabetes mellitus type 2

## exendin (9–39) [reference compound]
rats; GLP-1 injected into the cerebral ventricles of fasted rats
  effect on GLP-1-induced inhibition of feeding: blocked
rats; exendin (9–39) alone, satiated rats
  food intake: doubled food intake

## CC[C@H](C)[C@H](NC(=O)[C@H](Cc1ccccc1)NC(=O)[C@H](CCC(=O)O)NC(=O)[C@H](CCCCN)NC(=O)[C@H](C)NC(=O)[C@H](C)NC(=O)[C@H](CCC(N)=O)NC(=O)CNC(=O)[C@H](CCC(=O)O)NC(=O)[C@H](CC(C)C)NC(=O)[C@H](Cc1ccc(O)cc1)NC(=O)[C@H](CO)NC(=O)[C@H](CO)NC(=O)[C@@H](NC(=O)[C@H](CC(=O)O)NC(=O)[C@H](CO)NC(=O)[C@@H](NC(=O)[C@H](Cc1ccccc1)NC(=O)[C@@H](NC(=O)CNC(=O)[C@H](CCC(=O)O)NC(=O)[C@H](C)NC(=O)[C@@H](N)Cc1c[nH]cn1)[C@@H](C)O)[C@@H](C)O)C(C)C)C(=O)N[C@@H](C)C(=O)N[C@@H](Cc1c[nH]c2ccccc12)C(=O)N[C@@H](CC(C)C)C(=O)N[C@H](C(=O)N[C@@H](CCCCN)C(=O)NCC(=O)N[C@@H](CCCNC(=N)N)C(N)=O)C(C)C [GLP-1, Glucagon-like peptide-1 (7–36) amide]
Healthy male subjects; [4]
  Calorie intake: 1520 ± 95 keal
  Fluid intake: 748 ± 52 mL
  Food quantity: 531 ± 35
  Meal duration: 35 ± 3 min
Healthy male subjects; [5]
  Calorie intake: 1451 ± 101 keal
  Fluid intake: 689 ± 48 mL
  Food quantity: 516 ± 40
  Meal duration: 34 ± 3 min
Healthy male subjects; [6]
  Calorie intake: 1107 ± 84 keal
  Fluid intake: 584 ± 45 mL
  Food quantity: 384 ± 34
  Meal duration: 30 ± 3 min
Healthy male subjects; GLP-1 i.v. infusion vs control, healthy male subjects
  reduction of fluid ingestion: 18%
Healthy male subjects; any infusion (0.375-1.5 pmol/kg per min i.v.), healthy male subjects
  side effects / adverse reactions: None of the participants reported any abdominal discomfort or side effects; also recorded: no overt side effects
Healthy male subjects; [7]
  subjective feeling of fullness (visual analogue scale 0–10): concomitant feeling of fullness; also recorded: early fullness
  subjective feeling of hunger (visual analogue scale 0–10): reduced degree of hunger; also recorded: less hunger
[1]; any dose of GLP-1 administered
  leptin levels: did not change
[1]; graded i.v. doses of GLP-1 in 5% glucose
  blood glucose and plasma insulin concentrations: dose-dependent, short-lasting increase
[1]; highest dose of GLP-1 (1.5 pmol/kg per min) i.v. infusion
  plasma GLP-1 concentration: supraphysiological plasma concentrations
[1]; pre-meal period, any dose of GLP-1
  plasma CCK concentrations: did not change
[2]; [8]
  decrease in calorie intake: 27%
  maximal reduction in food consumption: 29%
[2]; [9]
  Calorie intake: 694 ± 79 kcal
  Fluid intake: 360 ± 60 mL
  Food quantity: 268 ± 31 g
[2]; GLP-1 1.5 pmol/kg per min i.v., diabetes mellitus type 2
  side effects / adverse reaction: None of the participants reported any abdominal discomfort or side effects
[2]; [10]
  fullness (VAS 0–10): increased feeling of fullness
  hunger (VAS 0–10): reduced degree of hunger
[3]; GLP-1 1.5 pmol/kg per min i.v. vs saline
  glucagon response: significantly reduced
[3]; GLP-1 1.5 pmol/kg per min i.v.
  plasma concentrations of GLP-1: increased the plasma concentrations of GLP-1
[3]; GLP-1 1.5 pmol/kg per min i.v., saline 1197±101
  blood glucose AUC: 765 ± 65 mmol·min/L
[3]; GLP-1 1.5 pmol/kg per min i.v., saline 1775±357
  insulin AUC: 2920±516 μU×min/L
rats; intracerebroventricular administration, fasted rats
  food intake / feeding: reduce food intake; also recorded: inhibited feeding
rats; intraperitoneal application, rats
  food intake: did not have any effect
Obese humans
  effect on appetite: no effect on appetite
